Publication PMC6251858 (Acta Pharmaceutica Sinica. B, 2018)

Key:
Assay type in all cases: cell-based
Coxsackie virus B3 = experiment: in vitro inhibition of Coxsackie virus B3 replication; conditions: for SI against Coxsackie virus B3 replication: selectivity index, preliminary in vitro assay
[1] = system: herpes simplex virus 1 (HSV-1); experiment: in vitro antiviral assay against herpes simplex virus 1
[2] = system: influenza virus A/Hanfang/359/95 (H3N2); experiment: in vitro antiviral assay against influenza virus A/Hanfang/359/95; conditions: selectivity index, preliminary in vitro assay

Cc1cc(CCCOc2c(C)cc(-c3noc(C(F)(F)F)n3)cc2C)on1 [Pleconaril]
IC50 (Coxsackie virus B3; Enterovirus B, B3, read-out: IC50 against Coxsackie virus B3 replication): 410 nM
SI against Coxsackie virus B3 replication (Coxsackie virus B3): 243.9

Nc1nc2c(ncn2COCCO)c(=O)[nH]1 [acyclovir]
IC50 ([1]; Human alphaherpesvirus 1, read-out: IC50 against herpes simplex virus 1 (HSV-1)): 710 nM
SI against herpes simplex virus 1 (HSV-1) ([1]; selectivity index, preliminary in vitro assay): 140.9

NC(=O)c1ncn([C@@H]2O[C@H](CO)[C@@H](O)[C@H]2O)n1 [RBV]
SI against influenza virus A/Hanfang/359/95 (H3N2) [2]: 1200
SI against Coxsackie virus B3 replication (Coxsackie virus B3): 9.0
